In brackets after ≈: the same amount, converted by molar mass.
Key:
B. subtilis ATCC 6633 = experiment: Minimal inhibitory concentration (MIC), agar streak test on heart infusion agar; assay type: cell-based; settings: Bacillus subtilis, ATCC6633, 37° C. for 20 hours, 10^8 viable cells per ml
Experimental: (§1) One loopful of an overnight culture of each test strain in Trypticase-soy broth (10^8 viable cells per ml.) was streaked on heart infusion agar (HI-agar) containing graded concentrations of antibiotics, and the minimal inhibitory concentration (MIC) was expressed in terms of μg/ml after incubation at 37° C. for 20 hours.

S. marcescens 35 = experiment: as above; assay type: cell-based; settings: Serratia marcescens, 37° C. for 20 hours, 10^8 viable cells per ml
Experimental: as §1

Structure (SMILES)	MIC (B. subtilis ATCC 6633) [µg/mL]	MIC (S. marcescens 35) [µg/mL]
CCO/N=C(\C(=O)NC1C(=O)N2C(C(=O)[O-])=C(C[n+]3cccc(NC)c3)CSC12)c1nsc(N)n1 (stereo not drawn) [Test Compound (1), 7-[2-Ethoxyimino-2-(5-amino-1,2,4,-thiadiazol-3-yl)acetamido]-3-(3-methylamino-1-pyridiniomethyl)-3-cephem-4-carboxylate (syn isomer)]	0.78 (≈ 1.5 µM)	1.56 (≈ 3.01 µM)
CCO/N=C(\C(=O)NC1C(=O)N2C(C(=O)[O-])=C(C[n+]3cccc(N(C)C)c3)CSC12)c1nsc(N)n1 (stereo not drawn) [Test Compound (2), 7-[2-Ethoxyimino-2-(5-amino-1,2,4-thiadiazol-3-yl)acetamido]-3-(3-dimethylamino-1-pyridiniomethyl)-3-cephem-4-carboxylate (syn isomer)]	0.39 (≈ 0.732 µM)	1.56 (≈ 2.93 µM)
CCO/N=C(\C(=O)NC1C(=O)N2C(C(=O)[O-])=C(C[n+]3cccc(OC)c3)CSC12)c1nsc(N)n1 (stereo not drawn) [Test Compound (3), 7-[2-Ethoxyimino-2-(5-amino-1,2,4-thiadiazol-3-yl)acetamido]-3-(3-methoxy-1-pyridiniomethyl)-3-cephem-4-carboxylate (syn isomer)]	0.78 (≈ 1.5 µM)	1.56 (≈ 3 µM)

Reference: patent US4521413A, “Cephem compounds” (Fujisawa Pharmaceutical Co., Ltd., priority 1981, dated 1985)
